Literature values as cited in patent US20120142750A1, “INDOLEAMINE 2,3-DIOXYGENASE PATHWAYS IN THE GENERATION OF REGULATORY T CELLS” (Regents of the University of Minnesota, priority 2005, published 2012).

Target: IDO (Homo sapiens, UniProt P14902)
Conditions: approximate literature value; cited from earlier work

Sequence of IDO (P14902 whole entry): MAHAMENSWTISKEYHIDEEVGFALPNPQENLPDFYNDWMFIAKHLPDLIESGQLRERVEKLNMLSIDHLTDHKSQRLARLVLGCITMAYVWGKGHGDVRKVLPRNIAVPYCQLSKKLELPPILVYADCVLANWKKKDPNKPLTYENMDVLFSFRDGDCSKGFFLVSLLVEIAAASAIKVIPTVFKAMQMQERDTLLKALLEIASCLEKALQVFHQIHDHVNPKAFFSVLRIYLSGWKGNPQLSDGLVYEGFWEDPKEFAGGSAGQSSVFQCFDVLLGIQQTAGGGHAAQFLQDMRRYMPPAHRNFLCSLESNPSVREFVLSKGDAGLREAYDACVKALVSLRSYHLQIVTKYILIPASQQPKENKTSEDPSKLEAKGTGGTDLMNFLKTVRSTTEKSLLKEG

O=C1C2=C(Nc3cc([N+](=O)[O-])ccc3N2)OC1c1ccc(C2OC3=C(Nc4ccc([N+](=O)[O-])cc4N3)C2=O)cc1 (stereo not shown) [Inhibitor V]
EC50: ~1 µM
